Results taken from ChEMBL document CHEMBL3988442, “University of Dundee, Small-Polar-MMV Screening Library” (2021).

Columns and labels:
[1] = microbe, parasite or virus in culture; conditions: Mycobacterium tuberculosis, 72 h, read-out: pIC50 (converted)
[2] = microbe, parasite or virus in culture; conditions: Mycobacterium tuberculosis, 96 h, read-out: pIC50 (converted)

Structure (SMILES) | IC50 [1] | IC50 [2]
O=C(Nc1cc(Cl)ccc1F)C1=COCCO1 | 228 µM | 265 µM
COc1ccc(S(=O)(=O)Nc2cccc(CN)c2)cc1 | 162 µM | > 501 µM
N#Cc1ccc(S(=O)(=O)NCCN)cc1C(F)(F)F | 160 µM | 223 µM
O=C(CC1COCCN1Cc1ccon1)c1cccs1 (stereo not drawn) | 172 µM | > 501 µM
CN(C)c1cc(C(=O)Nc2ccccc2F)ccn1 | 237 µM | 321 µM
CN(Cc1ccsc1)Cc1ccc(S(=O)(=O)N(C)C)o1 | > 501 µM | 86.4 µM
NC(=O)CC1CCN(C(=O)Cc2ccc(Cl)cc2)CC1 | > 501 µM | > 501 µM
CCc1ccc(S(=O)(=O)N(C)CC(N)=O)s1 | 244 µM | > 501 µM
CC(C)c1ccc(NC(=O)C2COCCN2C)cc1 (stereo not drawn) | 151 µM | > 501 µM
CCOCC(=O)NC(C)c1c(F)cccc1OC (stereo not drawn) | 178 µM | 277 µM
COc1ccc(N2CCCN(CCC(N)=O)CC2)cc1 | 345 µM | 240 µM
Cn1cc(CNC(=O)C2CSc3ccccc3O2)cn1 (stereo not drawn) | 218 µM | > 501 µM
NCCNS(=O)(=O)c1ccc(F)c(Br)c1 | > 501 µM | > 501 µM
CCOc1cccc(Cn2cnc(CC)cc2=O)n1 | > 501 µM | > 501 µM
COc1ccnc(NCc2ccc(CO)c(F)c2)n1 | > 501 µM | > 501 µM
COc1cc(Cl)ccc1CN | > 501 µM | 279 µM
Cc1oc(C)c(C(=O)NCC(=O)N2CCCC2)c1C | > 501 µM | > 501 µM
CN1CN(Cc2ccc(Cl)o2)CC1=O | > 501 µM | > 501 µM
CSc1ccc(C(CN)N(C)C)cc1 (stereo not drawn) | 215 µM | 319 µM
COCc1nn(Cc2csc(C(C)C)n2)c(=O)o1 | 14.9 µM | 22.5 µM
CN(CCOc1ccc(Cl)cc1)S(C)(=O)=O | 142 µM | 178 µM
Cc1ccc(NCc2cccc(O)c2)cc1S(C)(=O)=O | 89.7 µM | 333 µM

Structure (SMILES) | IC50 [1] | IC50 [2]
CC(=O)c1cccc(OCC(=O)NC2CCCC2)c1 | 290 µM | 182 µM
COC(=O)N1CCC(Nc2nnc(C(F)(F)F)s2)CC1 | 160 µM | 230 µM
C=C(C)CCOC(=O)c1ccc(CS(C)(=O)=O)cc1 | 275 µM | 258 µM
CCC(N)c1cnn(CC)c1 (stereo not drawn) | > 501 µM | > 501 µM
CC(Oc1ccc2c(c1)OCO2)C(=O)NC1CC1 (stereo not drawn) | > 501 µM | > 501 µM
Cc1c(CN2CCSCC2)cccc1NS(C)(=O)=O | > 501 µM | > 501 µM
COc1ccc(-c2noc(C3(O)CCCC3)n2)cn1 | 282 µM | 104 µM
Cc1cc(C(C)NC(=O)CN2CSCC2=O)c(C)s1 (stereo not drawn) | 274 µM | > 501 µM
N#Cc1ccc(S(=O)(=O)NCCCN)cc1C(F)(F)F | 205 µM | > 501 µM
CCN(C)S(=O)(=O)N(CC)CC(O)c1ccc(C)cc1 (stereo not drawn) | 334 µM | 293 µM
CCOc1ccc2c(c1)C=C(C(=O)NC)CO2 | 174 µM | 230 µM
CCC(C)NC(=O)c1cc(F)cc(F)c1 (stereo not drawn) | 130 µM | 229 µM
CN(C)c1cc(CNC(=O)c2ccc(Br)o2)ccn1 | > 501 µM | > 501 µM
COCc1nn(CCC2CCCC2)c(=O)o1 | 68.2 µM | 86.6 µM
CC(C)c1cc(C(=O)N[C@@H]2CCOC[C@H]2O)cs1 | > 501 µM | > 501 µM
COc1ccc(C)cc1CN1CCN(S(N)(=O)=O)CC1 | 65.2 µM | 184 µM
CCOCC(=O)NCC1(O)CCCc2ccccc21 (stereo not drawn) | 83.9 µM | 231 µM
CCOc1ccc(Cn2nc(COC)oc2=O)nc1 | 246 µM | 19.1 µM
NCC(O)c1ccc(Cl)cc1Cl (stereo not drawn) | 304 µM | > 501 µM
CNCC(=O)NCCc1c(OC)ccc2ccccc12 | 411 µM | > 501 µM
CCC(CNS(=O)(=O)N(C)CC)c1ccccc1 (stereo not drawn) | 249 µM | > 501 µM
COc1cc(NC(=O)NCc2nncn2C)ccc1Br | 218 µM | > 501 µM

Structure (SMILES) | IC50 [1] | IC50 [2]
CC(CNC(=O)c1ccncc1)c1ccccc1 (stereo not drawn) | 189 µM | > 501 µM
CSCCC(=O)NCc1ccc(C)s1 | > 501 µM | > 501 µM
CCCNc1nnc(SCC(C)(C)O)s1 | 297 µM | 159 µM
Cc1cc(C)n(CC(=O)NCc2ccc(F)cc2)n1 | 216 µM | > 501 µM
NCc1noc2c1CCCC2 | > 501 µM | > 501 µM
Cc1ccc(S(=O)(=O)NCCN)cc1C(F)(F)F | 102 µM | > 501 µM
O=C1N(Cc2ccccc2)CCN1S(=O)(=O)Cl | 259 µM | 248 µM
CC(C)CNc1nc(N)c2cn[nH]c2n1 | 80 µM | 234 µM
Cc1cccc(CN(CC(N)=O)Cc2ccccn2)c1 | 194 µM | > 501 µM
CC(C)(C)OC(=O)N1CC2(CCC(CN)O2)C1 (stereo not drawn) | 231 µM | 263 µM
Cc1csc(NC(=O)NC(CO)CC(C)C)n1 (stereo not drawn) | 341 µM | 289 µM
NCc1nc(-c2cccc(Cl)c2)no1 | 323 µM | > 501 µM
COCCOC1CCN(c2cccc(C)n2)CC1 | 245 µM | 366 µM
CCNC(=O)NCCOC(=O)c1cccc2cc[nH]c12 | > 501 µM | > 501 µM
CN(C)S(=O)(=O)N1CCCC1c1ccsc1 (stereo not drawn) | 277 µM | > 501 µM
Cc1ccc(NC(=O)C(C)N2CCC(O)CC2)cc1F (stereo not drawn) | 200 µM | 284 µM
O=C(Nc1ccc(Cl)cn1)c1ccncc1 | 304 µM | > 501 µM
O=S(=O)(CCN1CC[C@@H](O)C1)c1cccc(Br)c1 | 112 µM | 146 µM
CC(C)(O)CSc1nnc(NCc2ccco2)s1 | 118 µM | 55.2 µM
CC(C)n1cc(Br)cc1C(=O)NC1=NCCS1 | 177 µM | > 501 µM
CCSc1nc2ccccc2c(=O)n1CCCO | 181 µM | 278 µM
CNC(=O)NC(=O)CSc1ccccc1F | > 501 µM | > 501 µM

Structure (SMILES) | IC50 [1] | IC50 [2]
CCOC(=O)C(C)Nc1ccc2c(c1)CCCC(=O)N2 (stereo not drawn) | > 501 µM | > 501 µM
CC(C)Oc1ccc(S(=O)(=O)N(C)C(C)CN)cc1 (stereo not drawn) | 162 µM | 273 µM
C=C(C)CN1C(=O)Nc2ccccc2S1(=O)=O | 349 µM | > 501 µM
Cc1ccc(-c2nc(CSc3nnc(N)[nH]3)no2)cc1 | 107 µM | 80.2 µM
COC(=O)CCNS(=O)(=O)c1ccc(OC)cc1 | > 501 µM | > 501 µM
NCCCC(=O)N(Cc1ccccc1F)C1CCC1 | 231 µM | > 501 µM
NC(=O)COc1cc(Cl)cc(Cl)c1 | 246 µM | 278 µM
CC(Nc1ccc(C#N)cn1)c1ccc2c(c1)OCO2 (stereo not drawn) | 215 µM | 234 µM
CN1CCN(C(=O)c2cc3ccccc3o2)CC1 | 207 µM | 203 µM
Nc1cc(=O)[nH]n1-c1ccc(C(F)(F)F)cn1 | 197 µM | 308 µM
Cc1cccc(NC(=O)NCc2c(C)noc2C)n1 | 238 µM | > 501 µM
CCOC(=O)c1cnc(N2CCNCC2)s1 | 256 µM | 240 µM
O=C1OCCC1Sc1nnc(Nc2ccccc2)s1 (stereo not drawn) | 455 µM | > 501 µM
Cn1nnnc1SCCOc1cccc(F)c1 | 412 µM | 87.9 µM
CCNC(=O)CN(CC)S(=O)(=O)c1ccc(C)cc1 | 295 µM | > 501 µM
CSCc1cc(F)ccc1CNC(=O)c1cn[nH]c1C | > 501 µM | > 501 µM
CN(C)S(=O)(=O)N1CCCC1COc1ccccc1 (stereo not drawn) | 360 µM | 271 µM
NC(=O)CCSCc1ccn(-c2ccccc2)n1 | > 501 µM | 229 µM
O=c1n(Cc2ccccc2)nnn1-c1cccs1 | 7.64 µM | 12.7 µM
CC(=O)c1cccc(COC(=O)c2cccnc2)c1 | 231 µM | 269 µM
O=C(NCCn1cccc1)c1[nH]nc2c1CCCC2 | 248 µM | > 501 µM
N[C@@H]1C[C@H]1c1ccc2c(c1)OCCO2 | > 501 µM | 196 µM

Structure (SMILES) | IC50 [1] | IC50 [2]
Cc1cc(C(=O)NCC(O)c2ccccc2Cl)no1 (stereo not drawn) | 177 µM | > 501 µM
CCC(C)(C)NC(=O)CNc1ccc2c(c1)OCCO2 | 95.2 µM | 75.9 µM
Cc1ccc(C(N)=O)cc1NCC(C)C | > 501 µM | > 501 µM
CNc1nnc(-c2ccccc2)s1 | > 501 µM | > 501 µM
Cn1cc(C(N)=O)c(NC(=O)c2ccc(Br)cc2)n1 | 257 µM | > 501 µM
O=C(Nc1cc(F)cc(F)c1)c1ccncc1 | 224 µM | > 501 µM
CC(C)N(C)S(=O)(=O)NC1CCOc2ccccc21 (stereo not drawn) | 340 µM | > 501 µM
Cn1cc(CC(=O)Nc2ccc(I)cn2)cn1 | 283 µM | > 501 µM
Cc1cc(S(=O)(=O)N2CCCC2CN)sc1C (stereo not drawn) | 141 µM | > 501 µM
N#Cc1ccc(NCCOc2ccccc2)nc1 | 95.3 µM | 48.4 µM
Cc1nnc(SC[C@H](O)COCc2ccccc2)s1 | 209 µM | 133 µM
O=C(NCc1cccc(Cl)c1)c1cnns1 | 297 µM | 159 µM
CC(CN1CCOCC1)NC(=O)c1csc(Br)c1 (stereo not drawn) | 102 µM | 205 µM
O=C(CSc1ncccc1Br)N1CCCC1 | 5.62 µM | 70.3 µM
C=C(C)CCOC(=O)c1cc(C(N)=O)cs1 | 39.4 µM | 157 µM
COc1ccc(CCNc2ccc3nnnn3n2)cc1 | > 501 µM | > 501 µM
NCc1nc(-c2ccc(Cl)cc2)c[nH]1 | 128 µM | 264 µM
COc1ccc(NC(=O)N2CCCN(C)CC2)cc1F | > 501 µM | > 501 µM
O=C(NCc1ccnc(N2CCCC2)c1)c1ccsc1 | 114 µM | 141 µM
CN(C1(C#N)CCC1)S(=O)(=O)c1cccs1 | 323 µM | > 501 µM
COCCNc1ccc(OC)c(OC)c1 | 257 µM | > 501 µM
